In PubChem BioAssay (NCI):
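Method: 48-hour compound exposure of cells in 96-well plates, five concentrations, linear interpolation of endpoints. GI50 = concentration required for 50% inhibition of growth. TGI marks complete inhibition of growth.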

Key:
Test in all cases: DTP human tumour cell line panel, 48 h
MALME-3M melanoma = tested on: MALME-3M melanoma
COLO 205 colon = tested on: COLO 205 colon
M14 melanoma = tested on: M14 melanoma
U251 CNS = tested on: U251 CNS
RXF 393 renal = tested on: RXF 393 renal
NCI-H23 lung = tested on: NCI-H23 lung
EKVX NSCLC = tested on: EKVX NSCLC
UACC-257 melanoma = tested on: UACC-257 melanoma
HOP-62 NSCLC = tested on: HOP-62 NSCLC
T-47D breast = tested on: T-47D breast
SF-539 CNS = tested on: SF-539 CNS
HOP-92 NSCLC = tested on: HOP-92 NSCLC
786-0 renal = tested on: 786-0 renal
SK-MEL-5 melanoma = tested on: SK-MEL-5 melanoma
SK-MEL-28 melanoma = tested on: SK-MEL-28 melanoma
ACHN renal = tested on: ACHN renal
A498 renal = tested on: A498 renal
K-562 leukemia = tested on: K-562 leukemia
SR leukemia = tested on: SR leukemia
OVCAR-4 ovarian = tested on: OVCAR-4 ovarian
CCRF-CEM leukemia = tested on: CCRF-CEM leukemia
HCC-2998 colon = tested on: HCC-2998 colon
UO-31 renal = tested on: UO-31 renal
SN12C renal = tested on: SN12C renal
SK-OV-3 ovarian = tested on: SK-OV-3 ovarian
DU-145 prostate = tested on: DU-145 prostate
MOLT-4 leukemia = tested on: MOLT-4 leukemia
KM12 colon = tested on: KM12 colon
SW-620 colon = tested on: SW-620 colon
HL-60(TB) leukemia = tested on: HL-60(TB) leukemia
CAKI-1 renal = tested on: CAKI-1 renal
OVCAR-3 ovarian = tested on: OVCAR-3 ovarian
MDA-MB-231 breast = tested on: MDA-MB-231 breast
HT29 colon = tested on: HT29 colon
SNB-19 CNS = tested on: SNB-19 CNS
RPMI-8226 leukemia = tested on: RPMI-8226 leukemia
A549 NSCLC = tested on: A549 NSCLC
HS 578T breast = tested on: HS 578T breast
HCT-15 colon = tested on: HCT-15 colon
UACC-62 melanoma = tested on: UACC-62 melanoma
TK-10 renal = tested on: TK-10 renal
NCI-H522 lung = tested on: NCI-H522 lung
SNB-75 CNS = tested on: SNB-75 CNS
NCI-H460 lung = tested on: NCI-H460 lung
PC-3 prostate = tested on: PC-3 prostate
MDA-MB-435 = tested on: MDA-MB-435
LOX IMVI melanoma = tested on: LOX IMVI melanoma
SK-MEL-2 melanoma = tested on: SK-MEL-2 melanoma
IGROV1 ovarian = tested on: IGROV1 ovarian
HCT-116 colon = tested on: HCT-116 colon
SF-268 CNS = tested on: SF-268 CNS
OVCAR-5 ovarian = tested on: OVCAR-5 ovarian
MCF7 breast = tested on: MCF7 breast
NCI/ADR-RES ovarian = tested on: NCI/ADR-RES ovarian
OVCAR-8 ovarian = tested on: OVCAR-8 ovarian
SF-295 CNS = tested on: SF-295 CNS
NCI-H226 lung = tested on: NCI-H226 lung
BT-549 breast = tested on: BT-549 breast

O=C1c2ccccc2C(=O)c2c(N=Nc3[nH]c(=S)[nH]c3O)cccc21 was tested, and the GI50 (MALME-3M melanoma) was 769 nM, the TGI (MALME-3M melanoma) was > 100 µM and the GI50 (COLO 205 colon) was 2410 nM. The TGI (COLO 205 colon) was > 100 µM, the GI50 (M14 melanoma) was 579 nM and the TGI (M14 melanoma) was > 100 µM. The GI50 (U251 CNS) was 676 nM, the TGI (U251 CNS) was 56.7 µM and the GI50 (RXF 393 renal) was 508 nM. For the same compound, the TGI (RXF 393 renal) was 3.21 µM, the GI50 (NCI-H23 lung) was 1670 nM and the TGI (NCI-H23 lung) was 38.6 µM. The GI50 (EKVX NSCLC) was 4.71 µM, the TGI (EKVX NSCLC) was > 100 µM and the GI50 (UACC-257 melanoma) was > 100 µM. The TGI (UACC-257 melanoma) was > 100 µM, the GI50 (HOP-62 NSCLC) was 1840 nM and the TGI (HOP-62 NSCLC) was > 61.6 µM. For the same compound, the GI50 (T-47D breast) was 1640 nM, the TGI (T-47D breast) was > 100 µM and the GI50 (SF-539 CNS) was 424 nM. The TGI (SF-539 CNS) was 2740 nM, the GI50 (HOP-92 NSCLC) was 877 nM and the TGI (HOP-92 NSCLC) was > 57.2 µM. The GI50 (786-0 renal) was 1110 nM, the TGI (786-0 renal) was > 100 µM and the GI50 (SK-MEL-5 melanoma) was 743 nM. For the same compound, the TGI (SK-MEL-5 melanoma) was > 100 µM, the GI50 (SK-MEL-28 melanoma) was 5.2 µM and the TGI (SK-MEL-28 melanoma) was > 100 µM. For the same compound, the GI50 (ACHN renal) was 1900 nM, the TGI (ACHN renal) was > 100 µM and the GI50 (A498 renal) was 104 nM. The TGI (A498 renal) was 1130 nM, the GI50 (K-562 leukemia) was 434 nM and the TGI (K-562 leukemia) was > 100 µM. The GI50 (SR leukemia) was 472 nM, the TGI (SR leukemia) was > 100 µM and the GI50 (OVCAR-4 ovarian) was 2120 nM. The TGI (OVCAR-4 ovarian) was > 100 µM, the GI50 (CCRF-CEM leukemia) was 384 nM and the TGI (CCRF-CEM leukemia) was > 100 µM. The GI50 (HCC-2998 colon) was 3.08 µM, the TGI (HCC-2998 colon) was > 100 µM and the GI50 (UO-31 renal) was 792 nM. For the same compound, the TGI (UO-31 renal) was > 21.4 µM, the GI50 (SN12C renal) was 1490 nM and the TGI (SN12C renal) was > 100 µM. For the same compound, the GI50 (SK-OV-3 ovarian) was 3.86 µM, the TGI (SK-OV-3 ovarian) was > 100 µM and the GI50 (DU-145 prostate) was 984 nM. For the same compound, the TGI (DU-145 prostate) was > 42.4 µM, the GI50 (MOLT-4 leukemia) was 1100 nM and the TGI (MOLT-4 leukemia) was > 100 µM. For the same compound, the GI50 (KM12 colon) was 454 nM, the TGI (KM12 colon) was > 100 µM and the GI50 (SW-620 colon) was 496 nM. The TGI (SW-620 colon) was > 100 µM, the GI50 (HL-60(TB) leukemia) was 1130 nM and the TGI (HL-60(TB) leukemia) was > 100 µM. For the same compound, the GI50 (CAKI-1 renal) was 548 nM, the TGI (CAKI-1 renal) was > 75 µM and the GI50 (OVCAR-3 ovarian) was 368 nM. It also gave a GI50 (MDA-MB-231 breast) of 1300 nM, a TGI (MDA-MB-231 breast) of 18.3 µM and a GI50 (HT29 colon) of 2530 nM. For the same compound, the TGI (HT29 colon) was > 100 µM, the GI50 (SNB-19 CNS) was 997 nM and the TGI (SNB-19 CNS) was > 74.8 µM. The GI50 (RPMI-8226 leukemia) was 1090 nM, the TGI (RPMI-8226 leukemia) was > 100 µM and the GI50 (A549 NSCLC) was 1750 nM. For the same compound, the TGI (A549 NSCLC) was > 100 µM, the GI50 (HS 578T breast) was 462 nM and the TGI (HS 578T breast) was 47.9 µM. The GI50 (HCT-15 colon) was 689 nM, the TGI (HCT-15 colon) was > 100 µM and the GI50 (UACC-62 melanoma) was 604 nM. The TGI (UACC-62 melanoma) was > 100 µM, the GI50 (TK-10 renal) was 5.23 µM and the TGI (TK-10 renal) was > 100 µM. The GI50 (NCI-H522 lung) was 425 nM, the TGI (NCI-H522 lung) was > 34.5 µM and the GI50 (SNB-75 CNS) was 346 nM. The TGI (SNB-75 CNS) was 2960 nM, the GI50 (NCI-H460 lung) was 849 nM and the TGI (NCI-H460 lung) was > 100 µM. The GI50 (PC-3 prostate) was 816 nM, the TGI (PC-3 prostate) was > 100 µM and the GI50 (MDA-MB-435) was 224 nM. For the same compound, the TGI (MDA-MB-435) was 630 nM, the GI50 (LOX IMVI melanoma) was 734 nM and the TGI (LOX IMVI melanoma) was > 100 µM. The GI50 (SK-MEL-2 melanoma) was 1700 nM, the TGI (SK-MEL-2 melanoma) was > 100 µM and the GI50 (IGROV1 ovarian) was 968 nM. For the same compound, the TGI (IGROV1 ovarian) was > 100 µM, the GI50 (HCT-116 colon) was 462 nM and the TGI (HCT-116 colon) was > 100 µM. For the same compound, the GI50 (SF-268 CNS) was 1560 nM, the TGI (SF-268 CNS) was 98.9 µM and the GI50 (OVCAR-5 ovarian) was 4.17 µM. For the same compound, the TGI (OVCAR-5 ovarian) was > 100 µM, the GI50 (MCF7 breast) was 357 nM and the TGI (MCF7 breast) was > 100 µM. For the same compound, the GI50 (NCI/ADR-RES ovarian) was 2450 nM, the TGI (NCI/ADR-RES ovarian) was > 28.2 µM and the GI50 (OVCAR-8 ovarian) was 2470 nM. For the same compound, the TGI (OVCAR-8 ovarian) was > 100 µM, the GI50 (SF-295 CNS) was 983 nM and the TGI (SF-295 CNS) was 19.8 µM. For the same compound, the GI50 (NCI-H226 lung) was 4.33 µM, the TGI (NCI-H226 lung) was > 56.9 µM and the GI50 (BT-549 breast) was 1120 nM. It also gave a TGI (BT-549 breast) of 43.3 µM.
